Data published in patent publication US12440479B2, “Prevention or treatment of chronic organ injury” (GEORG-AUGUST-UNIVERSITAET GOETTINGEN, STIFTUNG …, priority 2018, dated 2025).

What was measured:
[1] = system: proximal ALK3 promoter (CACGTG E-box motif); assay: ALK3 ChIP-PCR after Arnt pull-down; format: cell-based, mouse; conditions: TECs upon exposure to FK506
Procedure: DNA and protein interaction was performed with the OneDay ChIP Kit (Diagenode, Seraing, Belgium) according to the manufacturer's instructions. 2×10^7 MCT cells have been used for each ChIP reaction. Cell lysates were sonicated using an ultrasonic processor S-4000 (Misonix, Farmingdale, USA). Immunoprecipitation was performed with a ChIP grade antibody against Yy1 (ab12132, Abcam Biochemicals, Cambridge, UK) and Arnt (3718, Cell Signaling, Danvers, USA). Enriched DNA was analyzed by qRT-PCR with EpiTect ChIP qPCR primers for genomic Arnt (Qiagen, Hilden, Germany), oligonucleotide sequences for genomic Alk3 are listed in Table 10.

ARNT, ALK3, pSmad1/5/8 = assay: Kidney allograft biopsies of transplant recipients (immunolabelling, qRT-PCR); format: in vivo, human; conditions: FK506-based immunosuppressive regimen as compared to CsA
Procedure: The use of parts of human specimens for research purposes as approved by the Ethics Committee of the University Medicine Göttingen, clinical data are presented in Table 6.
Paraffin-embedded specimens were deparaffinized in xylene and rehydrated in ethanol containing distilled water. Tissue sections were stained using polyclonal antibodies against ALK3 (sc-20736, Santa Cruz Biotechnology, Dallas, USA) and ARNT (3718S, Cell Signaling, Danvers, USA), peroxidase labeling was performed using Vectastain Universal Elite ABC Kit (Vector Laboratories, Burlingame, USA) according to the manufacturer's protocol. AEC Substrate-Chromogen (Dako, Glostrup, Denmark) was applied for peroxidase visualization according to the manufacturer's protocol. Nuclear counterstain was performed by using Mayer's Hematoxylin Solution (Sigma, St. Louis, USA). […]
For SYBR-based real-time PCR, cDNA synthesis was performed by using DNase I digestion (Invitrogen, Carlsbad, USA) and SuperScript II Reverse Transcriptase (Invitrogen, Carlsbad, USA) according to the manufacturer's protocol. […] The relative expression levels were calculated using the equation 2^−ddCt.

ARNT dimers = assay: Native gel electrophoresis of endogenous ARNT in TECs; format: cell-based, mouse; conditions: TECs upon exposure to FK506
Excerpt: Tissue and cells were homogenized in NP40 lysis buffer (Life technologies, Carlsbad, USA) supplemented with protease inhibitor cocktail (Roche, Basel, Switzerland). After sonication, protein samples were resolved by a 4-12% Bis-Tris polyacrylamide gel electrophoresis system (Novex, Carlsbad, USA) and transferred onto a nitrocellulose membrane (GE Healthcare, Freiburg, Deutschland), followed by a blocking step with 5% dry milk or 5% bovine serum albumin (BSA) in TBS-T (TBS pH 7.2, 0.1% Tween-20) to prevent unspecific bindings. After incubation with respective primary antibodies against ALK3 (ABD51, Merck Millipore, Billerica, USA) and ALK6 (ABD50, Merck Millipore, Billerica, USA), pSmad1/5/8 (13820, Cell Signaling, Danvers, USA), Arnt (3718, Cell Signaling, Danvers, USA), Fkbp12 (ab2918, Abcam Biochemicals, Cambridge, UK), NFATc1 (sc-7294, Santa Cruz Biotechnology, Dallas, USA), NFATc2 (sc-7295, Santa Cruz Biotechnology, Dallas, USA), β-actin (A5316, Sigma, St. Louis, USA) and Gapdh (5G4, HyTest, Turku, Finland), secondary HRP-conjugated antibodies were used (Dako, Glostrup, Denmark). Luminescence was detected by using chemiluminescent substrate (Cell Signaling, Danvers, USA) on a ChemiDoc XRS system (Bio-Rad, Hercules, USA). Native protein samples were prepared with Native PAGE Sample Prep kit (Novex, Carlsbad, USA) according to the manufacturer's instruction. […]

ARNT/HIF1α, ARNT/AHR = assay: Co-immunoprecipitation using antibodies to ARNT in cultured TECs; format: cell-based, mouse; conditions: cultured TECs in response to FK506 (200 pM), IP: Arnt
Procedure: CoIP was performed with Protein G Immunoprecipitation Kit (Roche, Basel, Switzerland). Protein A/G PLUS Agarose beads (Santa Cruz Biotechnology, Santa Cruz, USA) were used for the lysate pre-cleaning and pull-down. For each CoIP, 2×10^7 MCT cells have been used following the manufacturer's instructions. Yy1 (ab12132, Abcam Biochemicals, Cambridge, UK), Fkbp12 (ab2918, Abcam Biochemicals, Cambridge, UK), Arnt (3718, Cell Signaling, Danvers, USA), GFP (MA5-15256, Thermo Fisher Scientific, Waltham, USA) and myc-tag antibodies (2276, Cell Signaling, Danvers, USA) were used for immunoprecipitation, detection of co-immunoprecipitated Fkbp12 (ab12132, Abcam Biochemicals, Cambridge, UK), Hif1α ([MUT], Sigma, St. Louis, USA), Ahr (MA1-514, Thermo Fisher Scientific, Waltham, USA), GFP (MA5-15256, Thermo Fisher Scientific, Waltham, USA) and myc-tag (2276, Cell Signaling, Danvers, USA) was performed by immunoblotting.

murine TECs = assay: Murine TEC cultures (MCT): mRNA expression (qRT-PCR), pSmad1/5/8 immunostaining, proliferation; format: cell-based, mouse; conditions: cultured TECs, GPI-1046 10 μM

| SMILES | ARNT binding to CACGTG motif within the proximal ALK3 promoter [1] | immunolabelling of ARNT, ALK3 and pSmad1/5/8 (ARNT, ALK3, pSmad1/5/8) | intrarenal ARNT and ALK3 mRNA expression levels (ARNT, ALK3, pSmad1/5/8) | formation of ARNT dimers (ARNT dimers) | ARNT/HIF1α or ARNT/AHR interaction (ARNT/HIF1α, ARNT/AHR) | canonical BMP signaling responses (murine TECs) | transcriptional induction of ARNT and ALK3 mRNA expression levels (murine TECs) |
| --- | --- | --- | --- | --- | --- | --- | --- |
| C=CC[C@@H]1/C=C(\C)C[C@H](C)C[C@H](OC)[C@H]2O[C@@](O)(C(=O)C(=O)N3CCCC[C@H]3C(=O)O[C@H](/C(C)=C/[C@@H]3CC[C@@H](O)[C@H](OC)C3)[C@H](C)[C@@H](O)CC1=O)[C@H](C)C[C@@H]2OC [FK506, tacrolimus] | significantly increased | significantly increased | Transcriptional induction | further enhanced | did not provide evidence | – | – |
| CCC(C)(C)C(=O)C(=O)N1CCC[C@H]1C(=O)OCCCc1cccnc1 [GPI-1046, 3-(3-pyridyl)-1-propyl-(2S)-1-(3,3-dimethyl-1,2-dioxopentyl)-2-pyrrolidinedine carboxylate] | – | – | – | – | – | activation of canonical BMP signaling responses | equally effective |
